Test results: article PMC8280778, “^18F-ASEM Imaging for Evaluating Atherosclerotic Plaques Linked to α7-Nicotinic Acetylcholine Receptor” (Frontiers in Bioengineering and Biotechnology, 2021)
Read-outs that look alike come from different tables or passages of the source.

How the values were obtained:
α7nAChR [1] = molecular target: α7nAChR; parameters: method as in Gao et al., 2013; Wang et al., 2018; details: affinity for α7nAChR; ref Gao et al., 2013; Wang et al., 2018; cited from earlier work
[2] = biological distribution of the tracer in normal mice (dynamic PET); type: in vivo
α7nAChR [3] = molecular target: α7nAChR (Mus musculus, UniProt P49582)
Method: ApoE^–/– mice (n = 4; weight, 25–30 g) and normal mice (n = 4; weight, 25–30 g) were randomly selected; the chosen ApoE^–/– mice were fed with 21% fat and 0.15% cholesterol supplement for 11–12 weeks.
The high-performance liquid chromatography (HPLC)-purified ^18F-ASEM [[…], dissolved in 0.2 ml normal saline, containing 5% dimethyl sulfoxide (DMSO)] was injected into tail vein of ApoE^–/– mice and normal mice. ApoE^–/– mice, positioned prone position, were anesthetized (1–2% isoflurane) through inhalation. After anesthesia, mice were injected with 5.56 MBq (150 μCi) ^18F-ASEM through the tail vein and underwent a dynamic imaging for 1 h. Dynamic PET scanning were carried out at 5, 10, 15, 30, and 60 min after injection, and biological distributions were analyzed as previously described by our group ([Wang et al., 2021]). Briefly, the regions of interest (ROIs) were cycled from 3D ordered subset expectation maximization (OSEM 3D) reconstruction images, then % ID/g value was calculated by Inveon Research Workplace 4.0 (IRW4.0).

α7nAChR [4] = molecular target: T1, α7nAChR (Oryctolagus cuniculus, UniProt A0A0H4CUK0); assay: PET/CT imaging of abdominal aorta atherosclerotic plaques in New Zealand rabbits; type: in vivo; details: model rabbits, PET/CT 30 min after injection
T1 construct: from tissue; host or cells: living New Zealand rabbits (abdominal aorta with atherosclerotic plaques)
Method: New Zealand rabbits (n = 4; weight, 2.5–3.0 kg) were fed with high-fat diet for 14 weeks. The balloon-sprained and injured experiment was carried out at the third week after 2 weeks of high-fat diet. First, rabbits were anesthetized by 10% chloral hydrate, a 3-cm incision was conducted in the right inguinal area to expose the right femoral artery; then, the right femoral artery was punctured by Seldinger technique. Second, an angiographic catheter with double lumen balloon was sent to the aortic arch under fluoroscopy. Third, the balloon was bulged and pulled down to the bifurcation of the distal iliac artery of the abdominal aorta for three times. Lastly, the catheter and sheath were removed, and the operational incisions were sutured (Figure 2).
First, rabbits (n = 4) were anesthetized by 10% chloral hydrate (2 ml/kg). Then, ^18F-ASEM solution (74 MBq in 0.2 ml normal saline) was injected into the right ear vein of rabbits. After that, the imaging procedure was conducted 30 min after injection of ^18F-ASEM and lasted for 10 min performed by PET/CT (Discovery IQ 2.0 GE). The injection of ^18F-FDG (74 MBq in 0.2 ml normal saline) and PET/CT imaging were performed in the same strategy on the next day. The reconstruction mode was super iterative. The % ID/g value was worked out in the same protocol as mentioned above through IRW 4.0 software.

α7nAChR [5] = system: α7nAChR; parameters: method as in Gao et al., 2013; Wang et al., 2018; details: specificity for α7nAChR; ref Gao et al., 2013; Wang et al., 2018; cited from earlier work

α7nAChR (Mus musculus, UniProt P49582), sequence (P49582 23-502): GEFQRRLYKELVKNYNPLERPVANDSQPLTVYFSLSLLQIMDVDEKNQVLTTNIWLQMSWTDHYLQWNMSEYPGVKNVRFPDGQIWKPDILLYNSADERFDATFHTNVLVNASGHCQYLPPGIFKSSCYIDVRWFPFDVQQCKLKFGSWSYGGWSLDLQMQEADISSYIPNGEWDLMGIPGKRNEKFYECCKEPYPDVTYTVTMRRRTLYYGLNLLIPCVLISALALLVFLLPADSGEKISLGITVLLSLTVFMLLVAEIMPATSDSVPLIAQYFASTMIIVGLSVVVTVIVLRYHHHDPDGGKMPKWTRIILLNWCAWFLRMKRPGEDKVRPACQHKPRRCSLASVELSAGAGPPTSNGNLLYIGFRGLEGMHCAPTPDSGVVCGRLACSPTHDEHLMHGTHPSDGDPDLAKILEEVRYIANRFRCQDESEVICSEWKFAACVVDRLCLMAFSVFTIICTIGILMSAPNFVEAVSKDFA
T1 sequence (A0A0H4CUK0 25-504): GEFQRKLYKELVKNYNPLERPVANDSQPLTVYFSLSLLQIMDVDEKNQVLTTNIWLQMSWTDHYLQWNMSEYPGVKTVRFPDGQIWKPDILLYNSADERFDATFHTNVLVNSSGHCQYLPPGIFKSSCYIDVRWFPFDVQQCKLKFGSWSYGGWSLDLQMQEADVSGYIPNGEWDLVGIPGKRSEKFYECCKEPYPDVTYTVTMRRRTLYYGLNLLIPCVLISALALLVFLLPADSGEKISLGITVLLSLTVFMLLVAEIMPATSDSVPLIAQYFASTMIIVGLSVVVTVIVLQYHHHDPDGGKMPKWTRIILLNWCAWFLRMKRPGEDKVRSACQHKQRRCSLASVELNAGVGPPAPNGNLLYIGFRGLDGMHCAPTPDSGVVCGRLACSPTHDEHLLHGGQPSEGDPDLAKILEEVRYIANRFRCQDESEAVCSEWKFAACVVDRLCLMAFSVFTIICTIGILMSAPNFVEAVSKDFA

O=S1(=O)c2cc(N3CCN4CCC3CC4)ccc2-c2cccc(F)c21 [^18F-ASEM]
Ki (α7nAChR [1]): 0.4 nM

O=S1(=O)c2cc(N3CCN4CCC3CC4)ccc2-c2cccc([18F])c21 [^18F-ASEM]
time of peak uptake in the kidney ([2]; after injection): 5 min | time of peak uptake in the liver ([2]; after injection): 15 min | uptake in the muscle ([2]; compared with other organs): lowest uptake | uptake in the arteries (α7nAChR [3]; ApoE–/– mice): 4.05 ± 0.64 ID%/g | uptake in the arteries (α7nAChR [3]; ApoE–/– mice, 5 min after injection): 4.39 ± 1.08 ID%/g | uptake in the arteries (α7nAChR [3]; ApoE–/– mice, 15 min after injection): 4.20 ± 0.46 ID%/g | uptake in the arteries (α7nAChR [3]; ApoE–/– mice, 60 min after injection): 3.80 ± 0.43 ID%/g | uptake in the carotid artery (PET imaging) (α7nAChR [3]; ApoE–/– mouse): more ^18F-ASEM gathering | uptake in the arteries (α7nAChR [3]; control group mice): 2.40 ± 0.41 ID%/g | uptake in the arteries (α7nAChR [3]; control group mice, 5 min after injection): 2.35 ± 0.58 ID%/g | uptake in the arteries (α7nAChR [3]; control group mice, 15 min after injection): 2.46 ± 0.34 ID%/g | uptake in the arteries (α7nAChR [3]; control group mice, 60 min after injection): 2.70 ± 0.28 ID%/g | PET signal in the normal group (α7nAChR [3]; normal mice): no signal | uptake in plaques at abdominal arterial scratches zones (α7nAChR [4]): remarkable uptake | BPND (α7nAChR [5]): 3.9–6.6

^18F-FDG
uptake in the carotid artery (PET imaging) (α7nAChR [3]; mouse, in vivo): slight
